Measurements as given in PMC8092218, “NirA Is an Alternative Nitrite Reductase from Pseudomonas aeruginosa with Potential as an Antivirulence Target” (mBio, 2021).

Biological target: T1, PA4130 (NirA) (Pseudomonas aeruginosa, UniProt Q9HWQ1)
T1 construct: full ORF, N-terminal hexahistidine tag, plasmid pSK4130-N; coexpressed with E. coli cysG in E. coli NiCo21; IMAC and chitin column; monomer; siroheme and 4Fe-4S
Assay: reduced methyl viologen oxidation assay, spectrophotometric; Griess diazotization
Format: biochemical
Conditions: electron acceptor; reduced methyl viologen or dithionite-reduced spinach ferredoxin as donor; anaerobic

T1 sequence (Q9HWQ1 entry or part of it): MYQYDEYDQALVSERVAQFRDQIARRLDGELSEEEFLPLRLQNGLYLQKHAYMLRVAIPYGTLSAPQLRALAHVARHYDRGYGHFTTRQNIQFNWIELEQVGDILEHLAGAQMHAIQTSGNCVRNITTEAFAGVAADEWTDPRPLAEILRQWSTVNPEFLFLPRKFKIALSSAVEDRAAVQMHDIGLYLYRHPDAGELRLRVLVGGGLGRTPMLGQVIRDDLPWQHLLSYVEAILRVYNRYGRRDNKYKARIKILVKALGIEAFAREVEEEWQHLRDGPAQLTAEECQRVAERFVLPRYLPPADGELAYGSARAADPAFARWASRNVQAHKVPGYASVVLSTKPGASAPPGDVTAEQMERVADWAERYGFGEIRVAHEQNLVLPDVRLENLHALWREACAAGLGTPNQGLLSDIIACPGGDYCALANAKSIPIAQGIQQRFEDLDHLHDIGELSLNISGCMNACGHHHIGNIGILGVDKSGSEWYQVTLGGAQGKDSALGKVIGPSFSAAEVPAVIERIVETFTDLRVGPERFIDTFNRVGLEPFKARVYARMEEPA

With `O=NO` [nitrite] the “reduced methyl viologen oxidation assay, spectrophotometric; Griess diazotizatio” value was “PA4130 was able to oxidize MV only in the presence of nitrite”.
